{
  "source": "paper PMC5087659",
  "about": "“The role of ADP-ribosylation in regulating DNA interstrand crosslink repair” (Journal of Cell Science, 2016)",
  "target": "T1, O. sativa APL (Q10MW4) macrodomain (Oryza sativa, UniProt B8ALM5)",
  "T1 construct": "gene OsI_11122",
  "T1 sequence (B8ALM5 entry or part of it, one chain of several)": "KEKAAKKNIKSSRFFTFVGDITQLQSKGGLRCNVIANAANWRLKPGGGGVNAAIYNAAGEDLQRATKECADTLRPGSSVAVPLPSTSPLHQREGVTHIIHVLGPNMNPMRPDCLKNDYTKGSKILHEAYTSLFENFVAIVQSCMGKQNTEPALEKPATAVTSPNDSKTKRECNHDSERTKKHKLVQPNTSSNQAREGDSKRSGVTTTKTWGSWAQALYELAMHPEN",
  "assay": "X-ray crystal structure of the complex (co-crystallisation)",
  "conditions": "2 mM ADPr added to protein; crystals in 0.1 M SPG buffer pH 4, 25% PEG 1500, 20 °C; macrodomain binding pocket",
  "data": [
    {"smiles": "Nc1ncnc2c1ncn2[C@@H]1O[C@H](COP(=O)(O)OP(=O)(O)OC[C@H]2OC(O)[C@H](O)[C@@H]2O)[C@@H](O)[C@H]1O", "note": "(stereo partly shown) [ADP-ribose]", "values": [
      {"measurement": "X-ray crystal structure of the complex (co-crystallisation)", "value": "We were able to obtain the O. sativa macrodomain in a complex with ADP-ribose"}
    ]}
  ]
}
